Values joined by “and” are separate entries in the source; they are usually repeats but may differ in a detail not shown here. Identical values can stand only once.
Legend:
P. aeruginosa = experiment: Minimum Biofilm Inhibitory Concentration (MBIC) test; type: cell-based, Pseudomonas aeruginosa; conditions: for MBIC: adhered cells, 24 hours incubation; for MBIC Assuming 2 mL lock volume: amount in 2 mL lock volume
Description: (§1) To further evaluate the efficacy of local anesthetics in antimicrobial lock solutions of the present invention, the minimum concentration at which these drugs can inhibit biofilm growth was tested. The local anesthetics identified in Table 4 were tested against three different species of bacteria identified in Table 3 to assess the antimicrobial efficacy against adhered microbes. It is known that adhered microbes, or biofilms, can be more resistant to antimicrobials than planktonic cells.
(§2) Experiments were conducted against adhered microbes as follows: first, a test tube containing 10 mL of sterile TSB was inocubated with BD BBL™ Qualiswab™, with the strain of interest. The tube was placed in an incubator at 37° C. overnight. The next day, a flask containing 25 mL of sterile TSB (or Sabouraud Dextrose Broth (SDB) for fungal species) was inoculated with 1 mL of bacterial suspension. The flask was placed in an incubator at 37° C. and shaken at 150 RPM. The next day a new flask containing 25 mL of TSB (or SDB) media was inoculated with 1 mL from the previous culture. The bacterial or fungal species were allowed to grow to log phase.
(§3) After the microbes entered the log phase, their concentration was checked to ensure that they had reached a minimum of 1×10^8 CFU/mL per a 0.5 MacFarland standard. Microbes were diluted to a concentration of 1×10^5 CFU/mL using a nephelometer and 200 μL of the microbial suspensions were plated on each of the wells of a 96 well plate. The plate was incubated in a standard incubator at 37° C. for 2 hours to allow for microbial cell adhesion. Next, dilutions of the desired concentrations of antimicrobials were prepared. In a separate, blank plate, 1:2 serial dilutions were prepared with the highest concentration of the antimicrobial to the left of the plate, decreasing in concentration towards the right of the plate. For example, 170 μL of the highest concentration of an antimicrobial was dispensed in column 1 (left of plate). Each of the rest of the columns received 170 μL of saline. Column 2 received 170 μL of antimicrobial, making for a 1:2 dilution (or 50% of original concentration). Contents of Column 2 were then transferred to 3, then from 3 to 4, and so forth. Each well was supplemented with 20% media (TSB for S. epidermidis and P. aeruginosa and SDB for C. albicans), thereby ensuring the viability of the cells over the test time period (24 hours). Positive control wells had 20% media in saline. The bacterial plate was removed from the incubator, and bacterial suspension discarded (adhered cells remain on plate). The antimicrobial formulations identified in Table 4 were then added to the bacterial plate and incubated in a standard incubator at 37° C. for 24 hours. After this time period, solutions in the plate were discarded and plates were rinsed with 200 μL of saline. The cells were then fixed with 200 μL of 95% ethanol for 30 minutes, and allowed to air dry for 10 minutes. Next, the cells were stained for 20 minutes with 250 μL of a filtered solution of 2% crystal violet dye. The plates were then rinsed three times with water, and the 2% crystal violet dye was solubilized with 300 μL of 95% ethanol. The plates were allowed to stand for 10 minutes to complete solubilization and then the plates were read on a spectrophotometer at 570 nm absorbance, wherein high absorbance readings of >0.600 indicated microbial growth. Columns in the plate that had no growth were recorded as the […] (MBIC). FIG. 2 illustrates the MBIC corresponding to the specific local anesthetics.

C. albicans = experiment: as above; type: cell-based, Candida albicans; conditions: for MBIC: adhered cells, 24 hours incubation; for MBIC Assuming 2 mL lock volume: amount in 2 mL lock volume
Description: as §1, §2, §3

sheep plasma = experiment: Sheep's Plasma Clotting Assay (USP coagulation test); type: biochemical
Description: In order to understand what the working concentration range could be for the anesthetics tested, a Sheep's Plasma Clotting Assay was performed. This test is based on the United States Pharmacopeia (USP) standard test for coagulation and is often used to understand heparin potency. […] Sheep plasma was thawed in a water bath set to 37° C. To facilitate thawing, the plasma in the bottle was inverted every 15 minutes. The plasma was thawed after about 45-60 minutes. The thawed sheep plasma was filtered through glass wool or filtered into a clean glass beaker or flask, to remove particulate matter and to activate it. About 70-80 mL of filtered sheep plasma was collected. Next, a set of test tubes were prepared (VWR Disposable 13×100-mm) in a 6×12 rack. Ten test tubes were needed for each test solution including ten test tubes for the heparin standard. […] For each test solution, every (10) test tube received different volumes of 0.9% NaCl. […] Next, the local anesthetics were added, namely, tetracaine at 30 mg/mL, dibucaine at 30 mg/mL, and bupivacaine at 38 mg/mL. Each of the ten test tubes received different volumes of test solutions, starting with 280 μL and increasing in volume by 20 μL until reaching a volume of 460 μL at the tenth tube. The total volume of saline and test solutions in each of the tubes was 800 μL. A standard solution, namely, USP heparin sodium standard, was also prepared in the same way, with the starting concentration of heparin being 5.6 U/mL. Next, 1 mL of sheep plasma for heparin assay (Bio-Supplies, Inc, P-SPR-1500) was pipetted into each tube, and the rack was gently shaken to ensure mixing. Two hundred μL of a 1% CaCl2 solution was placed into each tube. The total volume for each tube is 2 mL. Each tube was capped with a VWR Plug-type cap, and contents of each tube were inverted six times to ensure that the entire inner wall of each tube was wet. Tubes were incubated for 1 hour at room temperature. After the 1 hour time period, the extent of clotting in each tube was determined by gently shaking each individual test tube (tapping the end gently is acceptable) and then tilting the tube to observe a clot both vertically and horizontally. The degree to which each tube developed a clot was recorded using the following criteria (per the USP Standard) for the visual inspection of the tubes: • 0% Clotting=No apparent clot formed. • 25% Clotting=Small observable clot with mostly liquid. Clot is very mobile. • 50% Clotting=Plasma is completely clotted but mobile. • 75% Clotting=Clot is not mobile but liquid is still present. • 100% Clotting=Clot is not mobile and no liquid is present.
Because of the testing protocol, starting concentrations of anesthetics were diluted from the original formulation. Calculations can be made to compare the efficacy of these anesthetics to the standard anticoagulant heparin by calculating the point at which both standard and test samples yield 50% clotting. Using this calculation, the anesthetic concentration can be referenced back to a measure of U/mL of heparin equivalence.

Candida albicans biofilm = experiment: Catheter biofilm eradication (catheter segment test) on silicone tubing; type: cell-based; conditions: 38 mg/mL, 1 hour, silicone catheter segments
Description: (§4) To understand the antimicrobial effects of the local anesthetics used in the lock solution of the present invention in a clinical setting, a biofilm was grown on silicone catheter-like tubing and treated with various concentrations of local anesthetics. First, a sterile silicone catheter-like tube containing 10 mL TSB media was inoculated with a BD BBL™ Qualiswab™, and placed in an incubator at 37° C. overnight. The next day, a sterile flask containing 25 mL TSB (for bacterial species) or 25 mL SDB (for fungal species) was inoculated with the cultured cells. The morning of the experiment, a new flask containing 25 mL of media was inoculated with the new overnight suspension. These steps were taken to ensure that cells were in the log phase, which for S. epidermidis was ˜3-4 hours, and for C. albicans was around ˜18 hrs. […] Microbial concentrations were adjusted to 1×10^5 CFU/mL by dilution with appropriate media. Silicone catheter-like tubing was terminally sterilized by autoclaving the tube for 45 minutes at 121° C. The sterilized catheter-like tubing was inoculated with 1×10^5 CFU/mL for 2 hours under continuous flow. Continuous flow was created by using a peristaltic pump, in which bacterial suspension was flowed through the catheter segments into a waste reservoir. After the 2 hour time period, the same set up was used to pump TSB media through the tubing for an additional 24 hours to allow biofilm to form on the walls of the catheter lumen. After 24 hours, sterilized saline was pumped through the lumen for 30 minutes to rinse the catheters. Catheters were then cut into 1 inch segments using sterile techniques. Catheter segments were dropped into sterile tubes containing 4 mL of antimicrobials, and incubated in a 37° C. incubator shaker for 1 hour. Segments were removed from treatment tubes and placed into new tubes filled with 6 mL of sterile saline. Each segment was swabbed with a sterile swab and both the tube and the swab were sonicated (Ultrasonic cleaner VWR Model 250T) for 3 minutes. Tubes and swabs were then vortexed (Fisher Scientific Vortex Mixer #02-215-365) for 30 seconds each. One hundred microliters of suspension was plated onto TSB agar plates (SDB for fungal species). The remaining 5.9 mL of suspension was passed through 0.4 μm filters and filters were placed on TSB plates. This step was taken to ensure that all possible bacteria were being recovered. All TSB plates were then incubated at 37° C. in a static incubator for 24-48 hours, at which time colony forming units were counted.

[1] = tested on: Staphylococcus epidermidis biofilm; experiment: as above; type: cell-based; conditions: 1 hour, silicone catheter segments
Description: as §4

S. epidermidis = experiment: Minimum Biofilm Inhibitory Concentration (MBIC) test; type: cell-based, Staphylococcus epidermidis; conditions: for MBIC: adhered cells, 24 hours incubation; for MBIC Assuming 2 mL lock volume: amount in 2 mL lock volume
Description: as §1, §2, §3

[2] = Internal testing of anticoagulant equivalence to heparin; conditions: per internal testing
[3] = tested on: Staphylococcus epidermidis; experiment: Planktonic cell tests; type: cell-based; conditions: heparin solution
Description: In the planktonic cell tests, bupivacine was tested against non-adhering coagulase negative S. epidermidis, which is the bacterial species most prominent in the pathogenesis of CR-BSI. The planktonic cell experiments were performed by the following procedures. First, bacterial suspensions were prepared. Particularly, using BD BBL™ Qualiswab™, S. epidermidis was plated on a Tryptic Soy Broth (TSB) Petri Dish and grown overnight at 37° C. Using a sterile loop, a colony of S. epidermidis was picked up from the TSB Petri Dish and placed into a sterile flask containing 25 mL of sterile TSB media. The flask was then placed in a 37° C. shaking incubator and was shaken at 150 RPM overnight. The next day, 15 mL of the prepared bacterial suspension was placed into an autoclaved centrifuge tube and centrifuged at 10,000 RPM for 10 minutes using a Sorval Centrifuge. The bacteria from the bacterial suspension were rinsed in 0.9% saline by discarding the liquid media (after centrifugation step) and by resuspending the microbial pellet in 20 mL of sterile 0.9% saline. The bacteria were centrifuged and rinsed twice more, for a total of three saline rinses. […]
Bulk concentrations of the bupivacaine and/or vancomyacin (as noted in FIG. 1) were prepared in separate beakers and were filter sterilized. […] Samples were also assessed at time 0, in which there was no exposure to antimicrobials. […]

Compound: CCCCOc1cc(C(=O)NCCN(CC)CC)c2ccccc2n1.Cl [Dibucaine, Dibucaine HCl]
- MBIC (P. aeruginosa; HCl): 4.794 mg/mL and 4.75 mg/mL
- MBIC Assuming 2 mL lock volume (P. aeruginosa): 9.5 mg
- MBIC (C. albicans): 0.59 mg/mL
- MBIC Assuming 2 mL lock volume (C. albicans): 1.18 mg
- Equivalence to Heparin (sheep plasma; calculated from volumes giving 50% clotting versus heparin standard, per replicate): 6.23 U/mL
- 50% clotting range (sheep plasma; final concentration in tube, 1 hour at room temperature, per replicate): 5.1 to 5.4 mg/mL
- eradication of established biofilm (Candida albicans biofilm): completely eradicated
- Log reduction of established biofilm ([1]; 38 mg/mL): ~0.5 Log
- MBIC (S. epidermidis): 0.59 mg/mL
- MBIC Assuming 2 mL lock volume (S. epidermidis): 1.18 mg

Compound: Cc1cccc(C)c1NC(=O)C1CCCCN1C.Cl (stereo not drawn) [Mepivacaine, Mepivacaine HCl]
- MBIC (P. aeruginosa): 28.2 mg/mL
- MBIC Assuming 2 mL lock volume (P. aeruginosa): 56.4 mg
- MBIC (C. albicans): No inhibition
- MBIC Assuming 2 mL lock volume (C. albicans): No inhibition
- Log reduction of established biofilm ([1]; 28 mg/mL): 1.6 Log
- MBIC (S. epidermidis): 28.2 mg/mL
- MBIC Assuming 2 mL lock volume (S. epidermidis): 56.4 mg

Compound: CCCNC(C)C(=O)Nc1ccccc1C.Cl (stereo not drawn) [Prilocaine, Prilocaine HCl]
- antimicrobial effect on established biofilm [1]: minimal antimicrobial effect

Compound: O=C([O-])CC(O)(CC(=O)[O-])C(=O)[O-].[Na+].[Na+].[Na+] [sodium citrate]
- anticoagulant equivalence to heparin [2]: about 20 units/mL of heparin

Compound: heparin
- volume at 50% coagulation (sheep plasma; Rep 1): 370 µL
- antimicrobial effect against planktonic Staphylococcus epidermidis [3]: virtually no antimicrobial effect
